US20250339426A1, “GCN2 MODULATOR FOR TREATING CANCER” (HIBERCELL, INC., priority 2022, published 2025)

Key:
[1] = system: Ki67 positive cells in DLD-1 tumor sections; test: IHC staining of Ki67 in DLD-1 tumor sections; format: in vivo, mice
Experimental: DLD-1 (human colorectal cancer cells): Female 6-8 weeks old BALB/c nude mice were inoculated subcutaneously on the right flank with DLD-1 tumor cells (5×10^6) in 0.1 ml of RPMI1640 medium without serum for tumor development. The treatments were started when the mean tumor size reached approximately 195 mm^3 at Day 7 post inoculation and continued until end of study by twice daily oral gavage dosing of HC-7366 at listed doses (vehicle, 0.3 mg/kg HC-7366, 1 mg/kg HC-7366, 3 mg/kg HC-7366, 10 mg/kg HC-7366, or 30 mg/kg HC-7366, FIG. 10). For the time course study, tumors were harvested at Days 4, 7 and 14. Tumors were then used for IHC and RNAseq experiments (see Example 21).
DLD-1 tumor bearing mice were treated with HC-7366 at 0.3, 1, 3, 10 and 30 mg/kg twice a day for 14 days. Tumors were harvested for RNAseq analysis at Day 4, Day 7 and Day 14 (FIG. 128).

[2] = system: ASNS, PSAT1, PHGDH, PUMA, S100A8/A9 in KG-1 tumors; test: Tumor IHC, KG-1 tumors; format: in vivo, NOD SCID mice
Experimental: (§1) Immunohistochemical analysis was carried out on tumors that were collected at the end of the study described in Example 6. Formalin-fixed paraffin-embedded samples were sectioned at 5 μm thickness and mounted on Superfrost Plus microscope slides (Fisher Scientific). All immunohistochemical (IHC) staining was performed on Bond Rx auto-stainer (Leica Biosystems) using the conventional TSA-amplified detection system. Primary antibodies used were as follows: a-ASNS (Cell Signaling Technology #92479), a-PUMA (Cell Signaling Technology #98672), a-PSAT1 (Proteintech #10501-1-AP), a-PHGDH (Proteintech #14719-1-AP), HIF-1a-Novus Biologicals NB 100-479, HIF-2a-Novus Biologicals NB100-122SS, and GLUT-1-EMB Biosciences 07-1401. TSA-conjugated Alexa488, Alexa 568 and Alexa647 fluorophores from Invitrogen (#B40953, #B40956, and #B40958) were used at 1:500 dilution. Slides were counterstained with DAPI and cover slipped using Mowiol anti-fade mounting media (Sigma #D2522).
(§2) Slides were imaged with Aperio Versa 200 (Leica Biosystems) whole-slide scanner using 10×/0.32NA objective, and the data were analyzed using custom-written macros in ImageJ/FIJI (NIH). Briefly, 150 μm of outer edges of the tumor sections and necrotic regions (determined by lack of 4′,6-diamidino-2-phenylindole (DAPI) signal or presence of condensed DNA) were eliminated from the analysis. Gaussian-blurred DAPI channel was used to measure the area of the tumor tissue. Scans of immune-staining were processed to remove background, then total intensity value above appropriate threshold levels was measured and normalized to tissue area. All graphing and statistics (one-way ANOVA and pair-wise comparisons) were performed using Prism GraphPad.
Slides were deparaffinized, rehydrated and heat mediated antigen retrieval was conducted with AR6 buffer (Akoya). Slides were blocked with Roche diagnostics antibody diluent (Fisher) and stained with primary antibodies for 1 hr at 110 rpm. After washing, horseradish peroxidase (HRP)-conjugated secondary antibodies were added for 10 mins at 110 rpm. After washing, OPAL detection dye (Akoya) was added for a static 10 min incubation. Antigen retrieval was performed post OPAL staining, followed by DAPI staining and slide covering. Multispectral images were captured on the Polaris imaging system (Akoya) and spectral unmixing, cell segmentation and phenotyping was performed using Inform Tissue Finder software (Akoya). Imaging data was converted into .csv files and imported into Flowjo for analysis of S100A8/A9 percent positive cells. Primary antibodies used were rabbit anti-human/mouse S100A8/A9 (Clone RM1038, Abcam ab288715, paired with Opal 570).

[3] = system: LoVo (human colorectal cancer cells); test: In vivo tumor growth inhibition, LoVo xenograft; design: species or system BALB/c nude mice; settings: both 1 and 3 mg/kg twice daily oral
Experimental: LoVo (human colorectal cancer cells): Female 6-8 weeks old BALB/c nude mice were inoculated subcutaneously on the right flank with LoVo tumor cells (5×10^6) in 0.1 ml of EMEM medium without serum for tumor development. The treatments were started when the mean tumor size reached approximately 243 mm^3 at Day 16 post inoculation and continued until end of study by twice daily oral gavage dosing of HC-7366 at listed doses (vehicle, 0.3 mg/kg HC-7366, 1 mg/kg HC-7366, 3 mg/kg HC-7366, 10 mg/kg HC-7366, or 30 mg/kg HC-7366, FIGS. 8-9).
[formula] • 2.2.2 Tumor Measurements: The measurement of tumor size was conducted three times weekly with a caliper and recorded. The tumor volume (mm^3) was estimated using the formula: TV=a×b^2/2, where “a” and “b” is long and short diameters of a tumor, respectively. Tumor volume was calculated using the formula [tumor volume (mm^3)=π/6×length×width^2).
Regression was calculated using the formula=100×ΔT/T initial, if ΔT<0. Animals with 0 mm^3 tumor volume (no measurable tumor) for three consecutive measurements were considered as complete responders and animals with 50% tumor regressions were partial responders.

[4] = system: ATF4, ASNS, PSAT1 in MOLM-16 cells; test: Jess protein analysis, MOLM-16 cells; format: cell-based, human; settings: sgControl vs sgGCN2, 24 hr
Experimental: Cell lysates were obtained from MOLM-16 sgControl or sgGCN2 cells treated with HC-7366 (0, 0.01, 0.1 and 10 μM) for 24 hr. Ice cold 1x radioimmunoprecipitation assay (RIPA) lysis buffer supplemented with protease and phosphatase inhibitors was added to the cell pellets, on ice. After 30 min on ice, the cell lysates were centrifuged at 4° C., 12,000 rpm for 15 minutes and the supernatant collected. Protein concentration was determined using BCA kit. The cell lysates were mixed with 5× sodium dodecyl sulfate (SDS) loading buffer and denatured at 95° C. for 5 minutes. 1 μg lysate was run on Jess capillary and results were analyzed by compass simple western software.

[5] = system: ASNS, PSAT1, PUMA, HIF1α, HIF2a in DLD-1 tumors; test: Tumor IHC, DLD-1 tumors; format: in vivo, BALB/c nude mice
Experimental: as §1, §2

[6] = end of study (day 27), highest induction at 1 and 3 mg/kg
[7] = end of study (day 20), bell-shaped manner
[8] = printed 'in FaDu tumors', FIGS. 29-39

## CNC(=O)c1ncn2cc(-c3c(F)ccc(NS(=O)(=O)c4cc(Cl)cnc4OC)c3F)ncc12 [HC-7366, 6-(3-((5-chloro-2-methoxypyridine)-3-sulfonamido)-2,6-difluorophenyl)-N-methylimidazo[1,5-a]pyrazine-1-carboxamide]
[1]; Day 4, 0.3, 10 or 30 mg/kg
  Ki67 positive cancer cells: not at the less efficacious doses
[1]; Day 4, 1 and 3 mg/kg
  Ki67 positive cancer cells: significantly reduced
[2]; 1 and 3 mg/kg doses, day 27
  protein levels of S100A8/A9: potently reduced
[2]; day 27
  PUMA levels: not changed
[2]; [6]
  ASNS by IHC: potently induced
  PHGDH by IHC: potently induced
  PSAT1 by IHC: potently induced
[3]
  tumor growth inhibition: 94%
[4]
  levels of ATF4, ASNS and PSAT1: GCN2-dependent increase
[5]; [7]
  ASNS by IHC: potently induced
  PSAT1 by IHC: potently induced
  PUMA by IHC: potently induced
[5]; [8]
  HIF1α protein levels: significantly reduced
  HIF2α protein levels: significantly reduced
